According to publication PMC10301922, “Anti-Oxidant, Anti-Mutagenic Activity and Safety Evaluation of Antrocin” (Toxics, 2023):

System: Sprague Dawley rats
Assay: 28-day oral toxicity test: histopathological examination
Conditions: for Bone, femur: Hypertrophy, epiphysis; Score value / Bone marrow, femur: Hypocellularity; Score value / Bone marrow, sternum: Hypocellularity; Score value / Spleen: Atrophy, red pulp; Score value: grades 1-5
[1] = female rats, 7.5 mg/kg oral 28 d
[2] = female rats, 37.5 mg/kg oral 28 d
[3] = male rats, 37.5 mg/kg oral 28 d

In the case of `C=C1CC[C@H]2C(C)(C)CCC[C@@]23C(=O)OC[C@@H]13` [Antrocin, (-)-Antrocin], the “Adrenal gland: Congestion, cortex, focal, slight; incidence” value [1] is reported as “-”, the “Aorta: histopathological lesions” value [1] is reported as “-” and the “Bone, femur: Hypertrophy, epiphysis, diffuse, slight to moderate/severe; incidence” value (from here on “Bone, femur … to moderate/severe; incidence”) [1] is reported as 0/5. For the same molecule, the “Cervix: histopathological lesions” value [1] was “-”, the “Esophagus: histopathological lesions” value [1] was “-” and the “Eyes: histopathological lesions” value [1] was “-”. For the same molecule, the “Heart: histopathological lesions” value [1] was “-”, the “Kidney: Cast, tubule, focal, slight; incidence” value [1] was “-” and the “Liver: Fatty change, multifocal, slight; incidence” value [1] was 1/5. The “Lung: histopathological lesions” value [1] was “-”, the “Optic nerve: histopathological lesions” value [1] was “-” and the “Ovary: Increase, follicle, multifocal, moderate to moderate/severe; incidence” value [1] was 0/5. The “Oviduct: histopathological lesions” value [1] was “-”, the “Pancreas: histopathological lesions” value [1] was “-” and the “Parathyroid gland: histopathological lesions” value [1] was “-”. The “Pituitary: histopathological lesions” value [1] was “-”, the “Salivary gland: histopathological lesions” value [1] was “-” and the “Sciatic nerve: histopathological lesions” value [1] was “-”. The “Skeletal muscle: histopathological lesions” value [1] was “-”, the “Skin: histopathological lesions” value [1] was “-” and the “Spinal cord: histopathological lesions” value [1] was “-”. For the same molecule, the “Spleen: histopathological lesions” value [1] was “-”, the “Stomach: histopathological lesions” value [1] was “-” and the “Thymus: histopathological lesions” value [1] was “-”. The “Thyroid gland: histopathological lesions” value [1] was “-”, the “Tongue: histopathological lesions” value [1] was “-” and the “Trachea: histopathological lesions” value [1] was “-”. The “Urinary bladder: histopathological lesions” value [1] was “-”, the “Uterus: histopathological lesions” value [1] was “-” and the “Vagina: histopathological lesions” value [1] was “-”. The “Bone, femur: Hypertrophy, epiphysis; Score value” (from here on “Bone, femur … Score value”) [1] was 0, the “Adrenal gland: Congestion, cortex, focal, slight; incidence” value [2] was “-” and the “Aorta: histopathological lesions” value [2] was “-”. For the same molecule, the “Bone, femur … to moderate/severe; incidence” value [2] was 0/5, the “Cervix: histopathological lesions” value [2] was “-” and the “Esophagus: histopathological lesions” value [2] was “-”. The “Eyes: histopathological lesions” value [2] was “-”, the “Harderian gland: Infiltration, mononuclear cell, focal, minimal; incidence” value [2] was 1/5 and the “Heart: histopathological lesions” value [2] was “-”. For the same molecule, the “Kidney: Cast, tubule, focal, slight; incidence” value [2] was “-”, the “Lung: histopathological lesions” value [2] was “-” and the “Optic nerve: histopathological lesions” value [2] was “-”. The “Ovary: Increase, follicle, multifocal, moderate to moderate/severe; incidence” value [2] was 0/5, the “Oviduct: histopathological lesions” value [2] was “-” and the “Pancreas: histopathological lesions” value [2] was “-”. The “Parathyroid gland: histopathological lesions” value [2] was “-”, the “Pituitary: histopathological lesions” value [2] was “-” and the “Salivary gland: histopathological lesions” value [2] was “-”. For the same molecule, the “Sciatic nerve: histopathological lesions” value [2] was “-”, the “Skeletal muscle: histopathological lesions” value [2] was “-” and the “Skin: histopathological lesions” value [2] was “-”. The “Spinal cord: histopathological lesions” value [2] was “-”, the “Spleen: histopathological lesions” value [2] was “-” and the “Stomach: histopathological lesions” value [2] was “-”. For the same molecule, the “Thymus: histopathological lesions” value [2] was “-”, the “Thyroid gland: histopathological lesions” value [2] was “-” and the “Tongue: histopathological lesions” value [2] was “-”. For the same molecule, the “Trachea: histopathological lesions” value [2] was “-”, the “Urinary bladder: histopathological lesions” value [2] was “-” and the “Uterus: histopathological lesions” value [2] was “-”. The “Vagina: histopathological lesions” value [2] was “-”, the “Bone, femur … Score value” [2] was 0 and the “treatment-related lesions in the histopathological examination” value (high dose (37.5 mg/kg) oral 28 d) was “no significant treatment-related lesions”. For the same molecule, the “Adrenal gland: Congestion, cortex, multifocal, slight; incidence” value (male rats, 7.5 mg/kg oral 28 d) was “-”, the “Aorta: histopathological lesions” value (male rats, 7.5 mg/kg oral 28 d) was “-” and the “Bone marrow, femur: Hypocellularity, diffuse, slight to moderate/severe; incidence” value (male rats, 7.5 mg/kg oral 28 d) was 0/5. For the same molecule, the “Bone marrow, sternum: Hypocellularity, diffuse, moderate; incidence” value (male rats, 7.5 mg/kg oral 28 d) was 0/5, the “Bone, femur … to moderate/severe; incidence” value (male rats, 7.5 mg/kg oral 28 d) was 0/5 and the “Coagulative gland: histopathological lesions” value (male rats, 7.5 mg/kg oral 28 d) was “-”. The “Epididymis: Granuloma, spermatic, focal, moderate; incidence” value (male rats, 7.5 mg/kg oral 28 d) was “-”, the “Esophagus: histopathological lesions” value (male rats, 7.5 mg/kg oral 28 d) was “-” and the “Eyes: histopathological lesions” value (male rats, 7.5 mg/kg oral 28 d) was “-”. For the same molecule, the “Harderian gland: histopathological lesions” value (male rats, 7.5 mg/kg oral 28 d) was “-”, the “Heart: Infiltration, mononuclear cell, focal, minimal to slight; incidence” value (male rats, 7.5 mg/kg oral 28 d) was 1/5 and the “Intestine, large, Caecum: histopathological lesions” value (male rats, 7.5 mg/kg oral 28 d) was “-”. The “Intestine, large, Colon: histopathological lesions” value (male rats, 7.5 mg/kg oral 28 d) was “-”, the “Intestine, large, Rectum: histopathological lesions” value (male rats, 7.5 mg/kg oral 28 d) was “-” and the “Intestine, small, Duodenum: histopathological lesions” value (male rats, 7.5 mg/kg oral 28 d) was “-”. The “Intestine, small, Ileum: histopathological lesions” value (male rats, 7.5 mg/kg oral 28 d) was “-”, the “Intestine, small, Jejunum: histopathological lesions” value (male rats, 7.5 mg/kg oral 28 d) was “-” and the “Kidney: Cast, tubule, focal, minimal; incidence” value (male rats, 7.5 mg/kg oral 28 d) was “-”. The “Kidney: Cyst, tubule, focal, slight; incidence” value (male rats, 7.5 mg/kg oral 28 d) was 1/5, the “Kidney: Infarct, tubule, focal, slight; incidence” value (male rats, 7.5 mg/kg oral 28 d) was 2/5 and the “Liver: histopathological lesions” value (male rats, 7.5 mg/kg oral 28 d) was “-”. For the same molecule, the “Lung: histopathological lesions” value (male rats, 7.5 mg/kg oral 28 d) was “-”, the “Lymph node, Cervical: histopathological lesions” value (male rats, 7.5 mg/kg oral 28 d) was “-” and the “Lymph node, Mesenteric: histopathological lesions” value (male rats, 7.5 mg/kg oral 28 d) was “-”. The “Mammary gland: histopathological lesions” value (male rats, 7.5 mg/kg oral 28 d) was “-”, the “Optic nerve: histopathological lesions” value (male rats, 7.5 mg/kg oral 28 d) was “-” and the “Pancreas: histopathological lesions” value (male rats, 7.5 mg/kg oral 28 d) was “-”. The “Parathyroid gland: histopathological lesions” value (male rats, 7.5 mg/kg oral 28 d) was “-”, the “Pituitary: histopathological lesions” value (male rats, 7.5 mg/kg oral 28 d) was “-” and the “Salivary gland, Mandibular lobe: histopathological lesions” value (male rats, 7.5 mg/kg oral 28 d) was “-”. For the same molecule, the “Salivary gland, Sublingual lobe: histopathological lesions” value (male rats, 7.5 mg/kg oral 28 d) was “-”, the “Sciatic nerve: histopathological lesions” value (male rats, 7.5 mg/kg oral 28 d) was “-” and the “Seminal vesicle: histopathological lesions” value (male rats, 7.5 mg/kg oral 28 d) was “-”. The “Skeletal muscle: histopathological lesions” value (male rats, 7.5 mg/kg oral 28 d) was “-”, the “Skin: histopathological lesions” value (male rats, 7.5 mg/kg oral 28 d) was “-” and the “Spinal cord: histopathological lesions” value (male rats, 7.5 mg/kg oral 28 d) was “-”. The “Spleen: Atrophy, red pulp, diffuse, slight to moderate; incidence” value (male rats, 7.5 mg/kg oral 28 d) was 0/5, the “Stomach: histopathological lesions” value (male rats, 7.5 mg/kg oral 28 d) was “-” and the “Testis: histopathological lesions” value (male rats, 7.5 mg/kg oral 28 d) was “-”. The “Thymus: histopathological lesions” value (male rats, 7.5 mg/kg oral 28 d) was “-”, the “Thyroid gland: histopathological lesions” value (male rats, 7.5 mg/kg oral 28 d) was “-” and the “Tongue: histopathological lesions” value (male rats, 7.5 mg/kg oral 28 d) was “-”. For the same molecule, the “Trachea: histopathological lesions” value (male rats, 7.5 mg/kg oral 28 d) was “-”, the “Urinary bladder: histopathological lesions” value (male rats, 7.5 mg/kg oral 28 d) was “-” and the “Bone marrow, femur: Hypocellularity; Score value” (male rats, 7.5 mg/kg oral 28 d) was 0. The “Bone marrow, sternum: Hypocellularity; Score value” (male rats, 7.5 mg/kg oral 28 d) was 0, the “Bone, femur … Score value” (male rats, 7.5 mg/kg oral 28 d) was 0 and the “Spleen: Atrophy, red pulp; Score value” (male rats, 7.5 mg/kg oral 28 d) was 0. For the same molecule, the “Adrenal gland: Congestion, cortex, multifocal, slight; incidence” value [3] was “-”, the “Aorta: histopathological lesions” value [3] was “-” and the “Bone marrow, femur: Hypocellularity, diffuse, slight to moderate/severe; incidence” value [3] was 0/5. The “Bone marrow, sternum: Hypocellularity, diffuse, moderate; incidence” value [3] was 0/5, the “Bone, femur … to moderate/severe; incidence” value [3] was 0/5 and the “Coagulative gland: histopathological lesions” value [3] was “-”. The “Epididymis: Granuloma, spermatic, focal, moderate; incidence” value [3] was “-”, the “Esophagus: histopathological lesions” value [3] was “-” and the “Eyes: histopathological lesions” value [3] was “-”. The “Harderian gland: histopathological lesions” value [3] was “-”, the “Heart: Infiltration, mononuclear cell, focal, minimal to slight; incidence” value [3] was 1/5 and the “Intestine, large, Caecum: histopathological lesions” value [3] was “-”. For the same molecule, the “Intestine, large, Colon: histopathological lesions” value [3] was “-”, the “Intestine, large, Rectum: histopathological lesions” value [3] was “-” and the “Intestine, small, Duodenum: histopathological lesions” value [3] was “-”. The “Intestine, small, Ileum: histopathological lesions” value [3] was “-”, the “Intestine, small, Jejunum: histopathological lesions” value [3] was “-” and the “Kidney: Cast, tubule, focal, minimal; incidence” value [3] was “-”. For the same molecule, the “Kidney: Infarct, tubule, focal, slight; incidence” value [3] was 1/5, the “Liver: histopathological lesions” value [3] was “-” and the “Lung: histopathological lesions” value [3] was “-”. The “Lymph node, Cervical: histopathological lesions” value [3] was “-”, the “Lymph node, Mesenteric: histopathological lesions” value [3] was “-” and the “Mammary gland: histopathological lesions” value [3] was “-”. The “Optic nerve: histopathological lesions” value [3] was “-”, the “Pancreas: histopathological lesions” value [3] was “-” and the “Parathyroid gland: histopathological lesions” value [3] was “-”. The “Pituitary: histopathological lesions” value [3] was “-”, the “Prostate gland: Infiltration, mononuclear cell, focal, minimal to slight; incidence” value [3] was 2/5 and the “Salivary gland, Mandibular lobe: histopathological lesions” value [3] was “-”. For the same molecule, the “Salivary gland, Sublingual lobe: histopathological lesions” value [3] was “-”, the “Sciatic nerve: histopathological lesions” value [3] was “-” and the “Seminal vesicle: histopathological lesions” value [3] was “-”. For the same molecule, the “Skeletal muscle: histopathological lesions” value [3] was “-”, the “Skin: histopathological lesions” value [3] was “-” and the “Spinal cord: histopathological lesions” value [3] was “-”. For the same molecule, the “Spleen: Atrophy, red pulp, diffuse, slight to moderate; incidence” value [3] was 0/5, the “Stomach: histopathological lesions” value [3] was “-” and the “Testis: histopathological lesions” value [3] was “-”. The “Thymus: histopathological lesions” value [3] was “-”, the “Thyroid gland: histopathological lesions” value [3] was “-” and the “Tongue: histopathological lesions” value [3] was “-”. For the same molecule, the “Trachea: histopathological lesions” value [3] was “-”, the “Urinary bladder: histopathological lesions” value [3] was “-” and the “Bone marrow, femur: Hypocellularity; Score value” [3] was 0. The “Bone marrow, sternum: Hypocellularity; Score value” [3] was 0, the “Bone, femur … Score value” [3] was 0 and the “Spleen: Atrophy, red pulp; Score value” [3] was 0.
